These results are taken from US9487508B2, “SGC stimulators” (IRONWOOD PHARMACEUTICALS, INC., priority 2012, dated 2016).

The term Emax denotes the greatest response seen or fitted, relative to the assay's reference. By EC50 is commonly meant the concentration at which the effect is half-maximal.

The assay addresses T1, soluble guanylate cyclase (sGC) (Homo sapiens, UniProt Q02108+Q02153).
T1 construct: endogenously expressing soluble guanylate cyclase (sGC); endogenous in cells; host or cells: HEK293
T1 sequence (Q02153 1-619): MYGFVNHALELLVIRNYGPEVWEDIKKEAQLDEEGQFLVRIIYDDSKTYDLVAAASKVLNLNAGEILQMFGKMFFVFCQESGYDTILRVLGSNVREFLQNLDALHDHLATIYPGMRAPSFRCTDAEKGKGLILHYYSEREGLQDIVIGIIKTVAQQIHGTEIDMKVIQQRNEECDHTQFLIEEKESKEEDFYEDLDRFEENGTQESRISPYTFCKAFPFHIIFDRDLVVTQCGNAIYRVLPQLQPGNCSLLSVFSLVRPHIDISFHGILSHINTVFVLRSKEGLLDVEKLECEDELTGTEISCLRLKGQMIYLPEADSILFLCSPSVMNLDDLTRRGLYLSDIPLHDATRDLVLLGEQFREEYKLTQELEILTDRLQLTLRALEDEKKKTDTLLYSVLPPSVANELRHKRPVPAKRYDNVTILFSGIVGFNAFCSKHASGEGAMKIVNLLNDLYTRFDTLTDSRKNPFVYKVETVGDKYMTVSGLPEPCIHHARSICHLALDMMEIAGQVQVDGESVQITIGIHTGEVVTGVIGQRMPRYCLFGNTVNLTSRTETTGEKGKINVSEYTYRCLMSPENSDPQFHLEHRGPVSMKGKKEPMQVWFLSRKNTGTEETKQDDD
T1 sequence (Q02108 1-690): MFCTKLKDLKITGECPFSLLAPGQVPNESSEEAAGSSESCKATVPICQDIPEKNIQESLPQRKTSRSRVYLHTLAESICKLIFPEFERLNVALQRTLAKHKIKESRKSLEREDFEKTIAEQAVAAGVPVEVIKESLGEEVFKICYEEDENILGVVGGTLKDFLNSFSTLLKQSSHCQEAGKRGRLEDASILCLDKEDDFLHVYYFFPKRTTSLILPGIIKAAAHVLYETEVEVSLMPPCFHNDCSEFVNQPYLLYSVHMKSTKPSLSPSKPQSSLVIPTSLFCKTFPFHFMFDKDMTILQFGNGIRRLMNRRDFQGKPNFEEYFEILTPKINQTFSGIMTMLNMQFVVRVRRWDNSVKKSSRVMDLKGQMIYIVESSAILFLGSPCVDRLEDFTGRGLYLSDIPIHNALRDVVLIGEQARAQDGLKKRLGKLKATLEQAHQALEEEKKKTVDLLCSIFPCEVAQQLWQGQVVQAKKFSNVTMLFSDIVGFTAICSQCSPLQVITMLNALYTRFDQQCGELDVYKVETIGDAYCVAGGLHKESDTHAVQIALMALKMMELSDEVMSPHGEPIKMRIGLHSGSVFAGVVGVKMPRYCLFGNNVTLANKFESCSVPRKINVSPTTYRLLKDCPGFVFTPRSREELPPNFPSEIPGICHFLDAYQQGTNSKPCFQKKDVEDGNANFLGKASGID
In words: sGC-HEK-cGMP assay with SNP incubation (LC/MS read-out). It is filed as cell-based. The conditions noted are these: 10 μM SNP. As for the experimental part:
(Assay Run with SNP Incubation)
Human embryonic kidney cells (HEK293), endogenously expressing soluble guanylate cyclase (sGC), were used to evaluate the activity of test compounds. Compounds stimulating the sGC receptor should cause an increase in the intracellular concentration of cGMP. HEK 293 cells were seeded in Dulbecco's Modification of Eagle's Medium supplemented with fetal bovine serum (10% final) and L-glutamine (2 mM final) in a 200 μL volume at a density of 1×10^5 cells/well in a poly-D-lysine coated 96 well flat bottom plate and grown overnight at 37° C. Medium was aspirated and cells were washed with 1× Hank's Buffered Saline Salt Solution (200 μL). Cells were then incubated for 15 minutes at 37° C. with 200 μL of a 0.5 mM 3-isobutyl-1-methylxanthine (IBMX) solution. Test article and sodium nitroprusside solutions (x μM concentration for test article solution and 10 μM concentration for SNP solution; wherein x is one of the following concentrations);
were then added to the assay mixture (2 μL each) and the resulting mixture incubated at 37° C. for 10 minutes. After the 10 minute incubation, the assay mixture was aspirated and 0.1M HCl (200 μL) was added to the cells. The plate was incubated at 4° C. for 30 minutes in the 0.1M HCl to stop the reaction and lyse the cells. The plates were then centrifuged at 1,200 g for 5 minutes at room temperature. Supernatants were collected and transferred to a new flat bottom 96 well plate for analysis by HPLC-MS. Vehicle controls were carried out using DMSO (1%) solutions. A known sGC stimulator, BAY 41-2272, was used as the positive control. Samples were diluted with an equal volume of 1 M Ammonium Acetate (pH 7) to neutralize samples for better chromatography. A 2×cGMP standard solution was prepared in 0.1 M HCl and then diluted with an equal volume of 1 M Ammonium Acetate, with the following final concentrations in nM: 1024, 512, 256, 128, 64, 32, 16, 8, 4, 2, 1. cGMP concentrations in the test plates were determined from each sample using the LC/MS conditions shown in Table 2 below and the calculated cGMP standard curve. EC50 values were calculated from concentration-response curves generated with GraphPad Prism Software.
The biological activities of some of the compounds of Formula I or Formula Ib determined with the sGC-HEK assay with SNP incubation are summarized in Tables 3A and 3B.

On to `Nc1ccnc(-n2cc(-c3ncco3)c(Cc3ccccc3F)n2)n1` [Compound I-2], for which the Emax at 10 µM (10 μM compound, 100% = BAY 41-2272 at 10 μM with 100 μM SNP, read-out: HEK assay (Percent Emax at 10 μM)) was 80 to 100%. In addition, where the note is “30 μM compound, 100% = BAY 41-2272 at 10 μM with 100 μM SNP, read-out: HEK assay (Percent Emax at 30 μM)”, the Emax at 30 µM lay within 80 to 100%. Further, for the setting “top of curve fitted to 100%, read-out: HEK assay EC50-constrained”, the EC50 fell in the range of 1000 to 5000 nM.
